US7211576B2, “Diaminothiazoles” (Hoffmann-La Roche Inc., priority 2004, dated 2007)

Key:
human cyclin B-CDK1 = human cyclin B-CDK1 (Homo sapiens, UniProt P06493); assay: FlashPlate kinase assay, cyclin B-CDK1; type: biochemical; conditions: Rb protein substrate, 1 μM ATP, 33P-ATP, 30 minutes room temperature
human cyclin E-CDK2 = human cyclin E-CDK2 (Homo sapiens, UniProt P24941); assay: FlashPlate kinase assay, cyclin E-CDK2; type: biochemical; conditions: Rb protein substrate, 1 μM ATP, 33P-ATP, 30 minutes room temperature
[1] = tested on: HCT116, a colorectal carcinoma cell line; assay: Tetrazolium dye (MTT) proliferation assay; type: cell-based; conditions: Homo sapiens, HCT-116; HCT116 cells, inhibition of cell proliferation
Method in brief: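 Cells in McCoy's 5A with 10% FCS, seeded for log growth, dosed next day in duplicate (0.3% DMSO final) and incubated to time points set by growth curves at 37° C. MTT at 1 mg/ml for 2.5–3 h, formazan in ethanol, A570 minus 650 nm reference. IC50 by linear regression of log concentration versus % inhibition.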

human cyclin D1-CDK4 = human cyclin D1-CDK4 (Homo sapiens, UniProt P11802); assay: FlashPlate kinase assay, cyclin D1-CDK4; type: biochemical; conditions: Rb protein substrate, 1 μM ATP, 33P-ATP, 30 minutes room temperature; read-out: CDK4 IC50
human cyclin D1-CDK4, sequence (P11802 whole entry): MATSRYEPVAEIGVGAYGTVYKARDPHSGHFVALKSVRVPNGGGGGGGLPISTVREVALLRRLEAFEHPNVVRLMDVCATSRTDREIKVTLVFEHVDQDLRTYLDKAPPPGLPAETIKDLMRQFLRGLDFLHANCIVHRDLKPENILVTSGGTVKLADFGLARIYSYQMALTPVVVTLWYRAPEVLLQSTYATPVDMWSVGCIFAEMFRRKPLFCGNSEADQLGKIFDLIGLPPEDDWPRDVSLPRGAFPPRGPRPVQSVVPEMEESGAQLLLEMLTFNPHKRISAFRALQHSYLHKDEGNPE
human cyclin D1-CDK4, sequence (P24385 whole entry partner): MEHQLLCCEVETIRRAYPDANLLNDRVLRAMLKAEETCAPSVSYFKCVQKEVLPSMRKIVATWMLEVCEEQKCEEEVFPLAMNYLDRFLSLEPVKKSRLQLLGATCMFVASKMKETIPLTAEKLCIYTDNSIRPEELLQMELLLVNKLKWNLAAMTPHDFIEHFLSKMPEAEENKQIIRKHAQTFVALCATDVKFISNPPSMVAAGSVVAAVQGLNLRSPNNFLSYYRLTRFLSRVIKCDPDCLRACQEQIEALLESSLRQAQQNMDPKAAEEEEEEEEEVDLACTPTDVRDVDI

human cyclin B-CDK1, sequence (P06493 whole entry): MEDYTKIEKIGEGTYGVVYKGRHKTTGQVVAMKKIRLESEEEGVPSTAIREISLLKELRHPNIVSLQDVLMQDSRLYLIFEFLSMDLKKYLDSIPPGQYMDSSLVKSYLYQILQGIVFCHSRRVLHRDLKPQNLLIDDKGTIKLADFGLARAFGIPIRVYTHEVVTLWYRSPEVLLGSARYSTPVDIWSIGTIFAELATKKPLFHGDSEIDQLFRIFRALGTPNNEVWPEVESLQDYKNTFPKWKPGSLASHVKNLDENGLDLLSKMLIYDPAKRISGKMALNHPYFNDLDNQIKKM
human cyclin B-CDK1, sequence (P14635 whole entry partner): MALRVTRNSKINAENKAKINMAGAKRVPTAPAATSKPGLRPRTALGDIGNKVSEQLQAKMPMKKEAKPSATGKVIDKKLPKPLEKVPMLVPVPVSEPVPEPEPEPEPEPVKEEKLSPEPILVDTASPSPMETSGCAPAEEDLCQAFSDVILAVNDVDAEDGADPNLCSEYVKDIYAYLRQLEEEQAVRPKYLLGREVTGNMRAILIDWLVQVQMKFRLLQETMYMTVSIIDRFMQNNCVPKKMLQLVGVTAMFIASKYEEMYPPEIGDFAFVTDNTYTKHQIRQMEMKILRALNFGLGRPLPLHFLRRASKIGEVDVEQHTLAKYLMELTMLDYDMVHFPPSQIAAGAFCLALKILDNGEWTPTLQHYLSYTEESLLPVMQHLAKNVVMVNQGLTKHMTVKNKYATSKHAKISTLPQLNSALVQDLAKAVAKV

Row | SMILES | IC50 (human cyclin B-CDK1) [nM] | IC50 (human cyclin E-CDK2) [nM] | IC50 [1] [nM] | IC50 (human cyclin D1-CDK4) [nM]
1 | CCc1cccc(C(=O)c2sc(Nc3ccc(N4CCC(N(C)C)CC4)cc3)nc2N)c1 [Example 115, {4-Amino-2-[4-(4-dimethylamino-piperidin-1-yl)-phenylamino]-thiazol-5-yl}-(3-ethyl-phenyl)-methanone] | 2800 | 1040 | 1240 | 10
2 | CCc1cccc(C(=O)c2sc(Nc3ccc(N4CCC(N5CCOCC5)CC4)cc3)nc2N)c1 [Example 116, {4-Amino-2-[4-(4-morpholin-4-yl-piperidin-1-yl)-phenylamino]-thiazol-5-yl}-(3-ethyl-phenyl)-methanone] | 5590 | 750 | 2550 | 15
3 | CN(C)C1CCN(c2ccc(Nc3nc(N)c(C(=O)c4cccc(C5CC5)c4)s3)cc2)CC1 [Example 120, {4-Amino-2-[4-(4-dimethylamino-piperidin-1-yl)-phenylamino]-thiazol-5-yl}-(3-cyclopropyl-phenyl)-methanone] | 1870 | 2580 | 3910 | 23
4 | CCCc1cc(C(=O)c2sc(Nc3ccc(N4CCC(N5CCCC5)CC4)cc3)nc2N)ccc1O [Example 123, {4-Amino-2-[4-(4-pyrrolidin-1-yl-piperidin-1-yl)-phenylamino]-thiazol-5-yl}-(4-hydroxy-3-propyl-phenyl)-methanone] | 345 | 200 | 1050 | 14
5 | CCNC1CCN(c2ccc(Nc3nc(N)c(C(=O)c4cccc(F)c4)s3)cc2)C1 (centres unmarked) [Example 132, {4-Amino-2-[4-(3-ethylamino-pyrrolidin-1-yl)-phenylamino]-thiazol-5-yl}-(3-fluoro-phenyl)-methanone] | 253 | 701 | 568 | 29
6 | CCNC1CCN(c2ccc(Nc3nc(N)c(C(=O)c4ccc(OC)c(F)c4)s3)cc2)C1 (centres unmarked) [Example 133, {4-Amino-2-[4-(3-ethylamino-pyrrolidin-1-yl)-phenylamino]-thiazol-5-yl}-(3-fluoro-4-methoxy-phenyl)-methanone] | 1860 | 3270 | 1020 | 66
7 | CCNC1CCN(c2ccc(Nc3nc(N)c(C(=O)c4cccc(OC)c4)s3)cc2)C1 (centres unmarked) [Example 134, {4-Amino-2-[4-(3-ethylamino-pyrrolidin-1-yl)-phenylamino]-thiazol-5-yl}-(3-methoxy-phenyl)-methanone] | 1330 | 4500 | 1240 | 46
8 | CCNC1CCN(c2ccc(Nc3nc(N)c(C(=O)c4cccc(OC)c4)s3)cc2)CC1 [Example 135, {4-Amino-2-[4-(4-ethylamino-piperidin-1-yl)-phenylamino]-thiazol-5-yl}-(3-methoxy-phenyl)-methanone] | 1150 | 6100 | 3370 | 28
9 | CCNC1CCN(c2ccc(Nc3nc(N)c(C(=O)c4ccc(OC)c(F)c4)s3)cc2)CC1 [Example 136, {4-Amino-2-[4-(4-ethylamino-piperidin-1-yl)-phenylamino]-thiazol-5-yl}-(3-fluoro-4-methoxy-phenyl)-methanone] | 1560 | 9430 | 3260 | 50

The remaining lines, values ahead:

Row | IC50 (human cyclin B-CDK1) [nM] | IC50 (human cyclin E-CDK2) [nM] | IC50 [1] [nM] | IC50 (human cyclin D1-CDK4) [nM] | SMILES
10 | 3220 | 989 | 1310 | 9 | CCc1cccc(C(=O)c2sc(Nc3ccc(N4CCC(N5CCCCC5)CC4)cc3)nc2N)c1 [Example 117, [4-Amino-2-(4-[1,4′]bipiperidinyl-1′-yl-phenylamino)-thiazol-5-yl]-(3-ethyl-phenyl)-methanone]
11 | 1530 | 3240 | 4150 | 31 | CCOc1cccc(C(=O)c2sc(Nc3ccc(N4CCC(N5CCCC5)CC4)cc3)nc2N)c1 [Example 118, {4-Amino-2-[4-(4-pyrrolidin-1-yl-piperidin-1-yl)-phenylamino]-thiazol-5-yl}-(3-ethoxy-phenyl)-methanone]
12 | 1530 | 3240 | 3170 | 11 | Nc1nc(Nc2ccc(N3CCC(N4CCCC4)CC3)cc2)sc1C(=O)c1cccc(C2CC2)c1 [Example 119, {4-Amino-2-[4-(4-pyrrolidin-1-yl-piperidin-1-yl)-phenylamino]-thiazol-5-yl}-(3-cyclopropyl-phenyl)-methanone]
13 | 700 | 1940 | 2160 | 11 | Cc1ccc(C(=O)c2sc(Nc3ccc(N4CCC(N5CCCC5)CC4)cc3)nc2N)cc1F [Example 121, {4-Amino-2-[4-(4-pyrrolidin-1-yl-piperidin-1-yl)-phenylamino]-thiazol-5-yl}-(3-fluoro-4-methyl-phenyl)-methanone]
14 | 5190 | 5310 | 4220 | 20 | CCc1cc(C(=O)c2sc(Nc3ccc(N4CCC(N5CCCC5)CC4)cc3)nc2N)ccc1F [Example 122, {4-Amino-2-[4-(4-pyrrolidin-1-yl-piperidin-1-yl)-phenylamino]-thiazol-5-yl}-(3-ethyl-4-fluoro-phenyl)-methanone]
